Data on three compounds can be found in patent US5413993A, “Method for the treatment of narcotic withdrawal symptoms in animals using lipopolysaccharides” (priority 1992, dated 1995).

Data set [1] can be described thus: Convulsions on intravenous clonidine (inventors' finding). Particulars: 10 mg/kg. In kind it is in vivo.
The test system of data set [2] is jumping, a severer withdrawal symptom. The note with it: intravenous, 0.1-0.10 mg/kg.
The subject of data set [3] is withdrawal body shake. The note with it: intraperitoneal, 0.16 mg/kg; cited from earlier work.
For data set [4] the following is noted: in vivo; cited from earlier work.
The conditions of data set [5]: in vivo; cited from earlier work. The source holds these as a separate data set.

For `Clc1cccc(Cl)c1N=C1NCCN1` [Clonidine, clonidine], the convulsions result in data set [1] is on record as “causes convulsions”. Moreover, the suppression of jumping result in data set [2] is “fails to suppress jumping”. Moreover, the “suppression of withdrawal body shake” value in data set [3] was “suppress withdrawal body shake”.
For `C[C@]12N[C@H](Cc3ccccc31)c1ccccc12` [Dizocilipine, dizocilpine], the “difference between toxic and effective doses” value in data set [4] was “extremely small difference between its toxic and effective doses”.
For the compound `CCC(=O)C(CC(C)N(C)C)(c1ccccc1)c1ccccc1` (centres unmarked) [Methadone], the dependence to itself entry in data set [5] was “cause dependence to itself”.
